The target in the assay is T1, leukotriene receptor (guinea pig lung membranes) (Cavia porcellus, UniProt Q2NNR5).
T1 construct: 20 mg original tissue wet weight of guinea pig lung; tissue Kuiper Rabbit Farm, Gary, IN (animals); host or cells: guinea pig lung, crude membranes
T1 sequence (Q2NNR5 1-340): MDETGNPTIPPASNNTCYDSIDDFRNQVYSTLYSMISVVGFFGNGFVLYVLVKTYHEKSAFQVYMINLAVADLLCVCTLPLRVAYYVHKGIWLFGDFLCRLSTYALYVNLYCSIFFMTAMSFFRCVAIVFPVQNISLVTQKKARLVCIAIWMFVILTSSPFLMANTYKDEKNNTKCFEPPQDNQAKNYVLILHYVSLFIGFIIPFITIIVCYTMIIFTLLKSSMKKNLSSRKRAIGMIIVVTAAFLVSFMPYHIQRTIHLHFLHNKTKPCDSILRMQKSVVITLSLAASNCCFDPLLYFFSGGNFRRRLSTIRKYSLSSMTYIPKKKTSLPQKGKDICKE
Briefly: Binding of ^3 H-Leukotriene D4 to Guinea Pig Lung Membranes (RBL). The settings on record: 0.2 nM ^3 H-LTD4, 60 min, 25° C.; read-out: Concentration (M) for 50.0 % Inhibition, IC (RBL). On the procedure:
Additionally, the activity, of the compounds having the Formula I of the present invention is determined by the well known leukotriene receptor binding assay that is described by R. F. Bruns, W. J. Thomsen and T. A. Pugsley in Life Sciences, 33, 645 (1983) or the Herxheimer in vivo antiallergy test described in H. Herxheimer, J. Physiol. (London), Vol. 177, p. 251 (1952).
Binding of ^3 H-Leukotriene D4 to Guinea Pig Lung Membranes (RBL)
[14,15-^3 H]leukotriene D4 (^3 H-LTD4) (25 Ci/mmol and 40 Ci/mmol) is purchased from New England Nuclear. Unlabeled LTC4 is a gift of Ono Pharmaceuticals (Japan). LTC4, LTD4, and LTE4 are purchased as methyl esters from Paesel GmbH (Frankfurt, W. Germany). Concentrations of the Paesel leukotrienes are calculated from their absorbance at 280 nm. Leukotriene esters are saponified overnight under N2 in 3.3% potassium carbonate at room temperature. Tritiated leukotrienes are stored as received from New England Nuclear at -20° C. Ono LTC4 (5 μg/ml) is stored at -60° C. in phosphate buffer pH 6.8. Saponified Paesel leukotrienes are stored at -60° C. in 3.3% potassium carbonate (pH 9.0-9.5). Aliquots of leukotrienes are taken from stock solutions immediately after thawing, after which the stock solutions are immediately refrozen. 2-Amino-2-(hydroxymethyl)-1,3-propanediol (Tris) is Sigma pH 7.7 pre-set crystals, and dimethylsulfoxide is Aldrich Gold Label.
Preparation of crude lung membranes
Two pairs of lungs (1.3 g) from freshly sacrificed 300 g male guinea pigs (older animals gave substantially lower binding) from Kuiper Rabbit Farm, Gary, IN are disrupted with a Polytron PT 10 (setting 4) for 30 seconds in 20 ml ice-cold 50 mM Tris adjusted with HCl to pH 7.7 at 25° C. (Tris buffer), filtered through a single layer of gauze to remove connective tissue, and centrifuged at 50,000 xg for ten min. The pellet is resuspended by homogenization with a Polytron in 20 ml Tris buffer, centrifuged at 50,000 xg for ten min., resuspended, incubated at 37° C. for 30 minutes, and centrifuged again. The final pellet is resuspended in Tris buffer and either used fresh or stored at -70° C.
All incubations are in triplicate for 60 minutes at 25° C. in 12×75 mm polystyrene tubes containing 1 ml Tris buffer with 20 mg original tissue wet weight of guinea pig lung nmembranes, 0.2 nM ^3 H-LTD4 (6,000-11,000 cpm), 10 mM MgCl2, and 1% dimethylsulfoxide Leukotrienes are diluted in Tris buffer. All other test compounds dissolved at 10 mM in dimethylsulfoxide on the same day as the experiment, and diluted in dimethylsulfoxide to 100× the final incubation concentration. Control incubations receive an equal volume (10 μl) of dimethylsulfoxide; the resulting concentration of dimethylsulfoxide had no effect on binding. ^3 H-LTD4 is diluted to 2 nM in Tris buffer. The membrane suspension (20 mg/0.89 ml) contains sufficient MgCl2 to give 10 mM final concentration in the incubation. […] All additions are performed at 0° C. Immediately after the last addition, the incubation is initiated by agitating the rack of tubes on a vortex mixer and warming to 25° C. in a water bath. Tubes are vortexed at least once more during the incubation to ensure that the membranes remained suspended. Incubations are terminated after 60 minutes by filtering under reduced pressure through 25 mm Whatman GF/B filters followed by rapid washing three times with 4 ml of ice-cold Tris buffer. Filters are added to scintillation vials with 8 ml Formula 947 (New England Nuclear), left overnight, shaken, and the radioactivity counted in a scintillation counter (efficiency 40%). Nonspecific binding, defined as binding of ^3 H-LTD4 in the presence of 100 nM LTC4, is 300-500 cpm for all lots of ^3 H-LTD4. Binding to the filters in the absence of tissue is about 100 cpm, and is not affected by unlabeled LTC4. Specific binding, defined as total binding minus nonspecific binding, varied considerably from lot to lot of ^3 H-LTD4. […]

“And” between values parts separate entries of the source, which are not always exact repeats. Equal entries are not always repeated.

On to `O=C(Nc1ccc(CCc2cccc(O)c2O)cc1)C1CS(=O)(=O)c2ccccc2C1=O` (centres unmarked) [Example 29, N-[4-[2-(2,3-Dihydroxyphenyl)ethyl]phenyl]-3,4-dihydro-4-oxo-2H-1-benzothiopyran-3-carboxamide, 1,1-dioxide], for which the IC50 stood at 3.92e-05 M. In the case of `CC(C)(C)c1cc(CCc2ccc(NC(=O)C3=C(O)c4ccccc4S(=O)(=O)C3)cc2)cc(C(C)(C)C)c1O` [Example 77, 2H-1-Benzothiopyran-3-carboxamide, N-[4-[2-[3,5-bis(1,1-dimethylethyl)-4-hydroxyphenyl]ethyl]phenyl]-4-hydroxy-, 1,1-dioxide], the IC50 stood at 5.96e-06 M. On to `O=C(Nc1ccc(CCc2cccc(C(F)(F)F)c2)cc1)C1=C(O)c2ccccc2S(=O)(=O)C1` [Example 62, N-[4-[2-(3-Trifluoromethylphenyl)ethyl]phenyl]-4-hydroxy-2H-1-benzothiopyran-3-carboxamide, 1,1-dioxide], for which the IC50 was 1e-05 M and 5.95e-06 M and 4.98e-06 M. With `COc1cccc(CCc2ccc(NC(=O)C3=C(O)c4ccccc4S(=O)(=O)C3)cc2)c1OC` [Example 28, N-[4-[2-(2,3-Dimethoxyphenyl)ethyl]phenyl]-4-hydroxy-2H-1-benzothiopyran-3-carboxamide, 1,1-dioxide], the IC50 was 5e-05 M and 3.56e-05 M.

`O=C(Nc1ccc(CCc2cccc(Cl)c2)cc1)C1=C(O)c2ccccc2S(=O)(=O)C1` [Example 68, 2H-1-Benzothiopyran-3-carboxamide, N-[4-[2-(3-chlorophenyl)ethyl]phenyl]-4-hydroxy-, 1,1-dioxide]: the IC50 is 4.99e-06 M. Turning to `COc1cc(CCc2ccc(NC(=O)C3=C(O)c4ccccc4S(=O)(=O)C3)cc2)cc(OC)c1` [Example 34, N-[4-[2-(3,5-Dimethoxyphenyl)ethyl]phenyl]-4-hydroxy-2H-1-benzothiopyran-3-carboxamide, 1,1-dioxide], the IC50 is 1.58e-05 M. The same measure for `COc1cc(CCc2ccc(NC(=O)C3=C(O)c4ccccc4S(=O)(=O)C3)cc2)cc(OC)c1OC` [Example 35]: 4.23e-05 M; for `O=C(Nc1ccc(CCc2ccc(Oc3ccccc3)cc2)cc1)C1=C(O)c2ccccc2S(=O)(=O)C1` [Example 75, 2H-1-Benzothiopyran-3-carboxamide, 4-hydroxy-N-[4-[2-(4-phenoxyphenyl)ethyl]phenyl]-, 1,1-dioxide]: 5.58e-06 M; for `COc1ccc(CCc2ccc(NC(=O)C3=C(O)c4ccccc4S(=O)(=O)C3)cc2)c(OC)c1` [Example 30, N-[4-[2-(2,4-Dimethoxyphenyl)ethyl]phenyl]-4-hydroxy-2H-1-benzothiopyran-3-carboxamide, 1,1-dioxide]: 2.26e-05 M. With `O=C(Nc1ccc(CCc2cc(C(F)(F)F)cc(C(F)(F)F)c2)cc1)C1=C(O)c2ccccc2S(=O)(=O)C1` [Example 63, N-[4-[2-[3,5-bis-Trifluoromethyl(phenyl)]ethyl]phenyl]-4-hydroxy-2H-1-benzothiopyran-3-carboxamide, 1,1-dioxide], the IC50 is 4.42e-06 M and 3.11e-06 M. With `O=C(Nc1ccc(CCc2ccc(Cl)c(Cl)c2)cc1)C(=O)C1=C(O)c2ccccc2S(=O)(=O)C1` [Example 69, 2H-1-Benzothiopyran-3-acetamide, N-[4-[2-(3,4-dichlorophenyl)ethyl]phenyl]-4-hydroxy-α-oxo-, 1,1-dioxide] the figure was 2.04e-05 M.

For `O=C(Nc1ccc(CCc2ccc(O)cc2O)cc1)C1=C(O)c2ccccc2S(=O)(=O)C1` [Example 31, N-[4-[2-(2,4-Dihydroxyphenyl)ethyl]phenyl]-4-hydroxy-2H-1-benzothiopyran-3-carboxamide, 1,1-dioxide], the IC50 came out at 5.2e-05 M.

For `COc1ccc(OC)c(CCc2ccc(NC(=O)C3=C(O)c4ccccc4S(=O)(=O)C3)cc2)c1` [Example 32, N-[4-[2-(2,5-Dimethoxyphenyl)ethyl]phenyl]-4-hydroxy-2H-1-benzothiopyran-3-carboxamide, 1,1-dioxide], the IC50 worked out at 2.35e-05 M. On to `COc1ccc(CCc2ccc(NC(=O)C(=O)c3sc4ccccc4c3O)cc2)cc1OC` [Example 131, N-[4-[2-(3,4-Dimethoxyphenyl)ethyl]phenyl]-3-hydroxy-α-oxo-benzo[b]thiophene-2-acetamide], for which the IC50 was 4.4e-06 M.

The values above are taken from patent US4868195A, “Novel enolamides, pharmaceutical compositions and methods of use thereof for activity as modulators of the arachidonic acid cascade” (Warner-Lambert Company, priority 1988, dated 1989).
